Where two headings read alike, the source gives them in different places. Peptide text beside a SMILES is read from it. * marks the point of attachment. Cbz = O=C(OCc1ccccc1)*

For the experiment, the system named is Raf-1^gof intestinal tumors. The conditions noted are these: for Log2 (fold) of luciferase activity relative to DMSO controls / Fold (luciferase activity relative to DMSO controls): ICCB compounds fed in vials to flies with one-day old Raf-1^gof tumors.
Where [1] appears, read: screen of 480 ICCB compounds in vials, compounds fed to flies with one-day old Raf-1^gof tumors, assessed three days later, esg-Gal4 luciferase.
Setting [2] is: screen of 480 ICCB compounds in vials, compounds fed to flies with one-day old Raf-1^gof tumors, assessed three days later, esg-Gal4 luciferase, averaged from multiple wells.
The mark [3] stands for this setting: assessed three days later, averaged from multiple wells.
Throughout, for Fold (luciferase activity relative to DMSO controls): test concentration or dose not given here.
Throughout, for Fold (luciferase activity, fold difference relative to DMSO controls): test concentration or dose not given here.
Throughout, for Log2 (fold) (luciferase activity, log2 of the fold difference relative to DMSO controls): test concentration or dose not given here.
Throughout, for Log2 (fold) of luciferase activity relative to DMSO controls: test concentration or dose not given here.

The compound `CC[C@@]1(O)C(=O)OCc2c1cc1n(c2=O)Cc2cc3cc(O)ccc3nc2-1` [10-hydroxycamptothecin, reference compound] came in with a Fold (Table 3 summary of hits, Screen ICCB, luciferase relative to DMSO, fed three consecutive days in vials) of 0.525 fold. Moreover, under setting [1], the “Log2 (fold) (luciferase activity, log2 of the fold difference relative to DMSO controls)” value is on record as −0.930. In addition, the “Fold (luciferase activity, fold difference relative to DMSO controls)” value under setting [2] stood at 0.525.

As to `O=C1C2CCN(CC2)C1(CO)CO` [PRIMA-1], the “Log2 (fold) of luciferase activity relative to DMSO controls” value (assessed three days later) is given as −0.110. Moreover, the “Fold (luciferase activity relative to DMSO controls)” value under setting [3] is 0.926 fold.

With pifithrin, the “Log2 (fold) of luciferase activity relative to DMSO controls” value (assessed three days later) stood at 0.022. In addition, the “Fold (luciferase activity relative to DMSO controls)” value under setting [3] is 1.015 fold.

Take `OC[C@H]1O[C@@H](n2cnc3cc(Cl)c(Cl)cc32)[C@H](O)[C@@H]1O` [DRB]: the “Log2 (fold) (luciferase activity, log2 of the fold difference relative to DMSO controls)” value under setting [1] is on record as −0.246. Further, the “Fold (luciferase activity, fold difference relative to DMSO controls)” value under setting [2] stood at 0.843.

On to `C[C@]12CC[C@@H]3c4ccc(O)cc4CC[C@H]3[C@@H]1CC[C@@H]2O` [ESTRADIOL], for which the “Log2 (fold) of luciferase activity relative to DMSO controls” value (assessed three days later) is given as −0.160. Further, the “Fold (luciferase activity relative to DMSO controls)” value under setting [3] is recorded as 0.895 fold.

Take `O[C@H]1[C@H](O)[C@@H](O)CN2CC[C@H](O)[C@H]12` [castanospermine]: the “Log2 (fold) (luciferase activity, log2 of the fold difference relative to DMSO controls)” value under setting [1] is −0.351. Further, the “Fold (luciferase activity, fold difference relative to DMSO controls)” value under setting [2] was determined as 0.784.

Regarding `CCCCC/C=C\C=C\[C@@H](O)CCCCCCCC(=O)O` [9(S)-HODE], the “Log2 (fold) (luciferase activity, log2 of the fold difference relative to DMSO controls)” value under setting [1] was −0.398. Further, the “Fold (luciferase activity, fold difference relative to DMSO controls)” value under setting [2] is reported as 0.759.

For `COC(=O)[C@@H](N)CCCNC(=N)N[N+](=O)[O-]` [L-NAME], the “Log2 (fold) (luciferase activity, log2 of the fold difference relative to DMSO controls)” value under setting [1] was −0.446. Besides, under setting [2], the “Fold (luciferase activity, fold difference relative to DMSO controls)” value worked out at 0.734.

As for `NC(=O)c1cccc(N)c1`, the “Log2 (fold) of luciferase activity relative to DMSO controls” value (assessed three days later) was −0.160. The “Fold (luciferase activity relative to DMSO controls)” value under setting [3] is on record as 0.895 fold.

For the compound `CCCCC/C=C\C/C=C\C/C=C\C/C=C\CCCC(=O)NCC(=O)O` [N-ARACHIDONOYLGLYCINE], where the note is “in vivo”, the “Fold (luciferase activity, fold difference relative to DMSO controls)” value amounted to 0.664 and the “Log2 (fold) (luciferase activity, log2 of the fold difference relative to DMSO controls)” value is −0.590.

For the compound `CCCCC/C=C\C\C=C/C=C/C=C/[C@@H](SC[C@H](N)C(=O)O)[C@@H](O)CCCC(=O)O` [LEUKOTRIENE E4], the “Log2 (fold) (luciferase activity, log2 of the fold difference relative to DMSO controls)” value under setting [1] was −0.439. Under setting [2], the “Fold (luciferase activity, fold difference relative to DMSO controls)” value is listed as 0.737.

In the case of `COC(=O)[C@@]1(O)C[C@H]2O[C@]1(C)n1c3ccccc3c3c4c(c5c6ccccc6n2c5c31)C(=O)NC4` [K252A], the “Log2 (fold) of luciferase activity relative to DMSO controls” value (assessed three days later) amounted to 0.364. Further, the “Fold (luciferase activity relative to DMSO controls)” value under setting [3] is 1.287 fold.

Turning to `O=C(O)CCC/C=C\C[C@H]1C(=O)C[C@@H](O)[C@@H]1/C=C/[C@@H](O)CCc1ccccc1` [17-PHENYL-TRINOR-PGE2], the “Log2 (fold) (luciferase activity, log2 of the fold difference relative to DMSO controls)” value under setting [1] was −0.253. For the same compound, the “Fold (luciferase activity, fold difference relative to DMSO controls)” value under setting [2] is recorded as 0.839.

For `N#Cc1c(-c2ccccc2)no[n+]1[O-]` [Furoxan], under setting [1], the “Log2 (fold) (luciferase activity, log2 of the fold difference relative to DMSO controls)” value was −0.280. Also, the “Fold (luciferase activity, fold difference relative to DMSO controls)” value under setting [2] was 0.823.

Turning to LY-294002, the “Log2 (fold) of luciferase activity relative to DMSO controls” value (assessed three days later) is −0.204. Further, the “Fold (luciferase activity relative to DMSO controls)” value under setting [3] is reported as 0.868 fold.

For the compound `FC(F)(F)c1ccccc1-n1ccnc1` [TRIM], for the setting “assessed three days later”, the “Log2 (fold) of luciferase activity relative to DMSO controls” value is −0.160. For the same compound, the “Fold (luciferase activity relative to DMSO controls)” value under setting [3] is given as 0.895 fold.

Consider `CC(C)C[C@@H](C=O)NC(=O)[C@H](CC(C)C)NC(=O)[C@H](CC(C)C)NC(=O)OCc1ccccc1` [MG-132] (Cbz-Leu-Leu-Leu-aldehyde), for which, under “assessed three days later”, the “Log2 (fold) of luciferase activity relative to DMSO controls” value amounted to 0.097. In addition, the “Fold (luciferase activity relative to DMSO controls)” value under setting [3] amounted to 1.070 fold.

On to `N#C/C(=C\c1cc(Cl)cc(Cl)c1)c1cccnc1` [RG-14620], for which the “Log2 (fold) (luciferase activity, log2 of the fold difference relative to DMSO controls)” value under setting [1] is on record as −0.483. The “Fold (luciferase activity, fold difference relative to DMSO controls)” value under setting [2] was 0.715.
